# Experimental data as given in patent US11897961B2, “Anti-CD123 antibodies and conjugates and derivatives thereof” (IMMUNOGEN, INC., priority 2015, dated 2024).
# Experiments:
# [1] = test system: normal blood cells / normal progenitor cells versus AML progenitors; assay: Cytotoxicity on normal blood / normal progenitor cells versus AML progenitors; type: cell-based, human; details: FIG. 11E and FIG. 19
# EOL-1 cells = assay: EOL-1 subcutaneous model in athymic nude mice, third study
# TF-1 cells [2] = assay: Proliferation of TF-1 cells grown in the presence of GM-CSF (IL-3-dependence control); type: cell-based, human; details: GM-CSF 2 ng/mL
# Method: (§1) The ability of anti-CD123 antibodies to inhibit IL3-mediated signaling and proliferation was examined in vitro using the erythroleukemia cell line TF-1 that can proliferate only in the presence of one of the following growth factors, either IL-3 or GM-CSF. TF-1 cells were cultured in the complete RPMI medium (RPMI-1640, 10% fetal bovine serum and 50 μg/mL gentamicin sulfate; all reagents were from Invitrogen) supplemented with GM-CSF (2 ng/mL). Prior to setting up the proliferation assays, the cells were washed and then starved of the growth factors overnight. […] TF-1 cells were plated at 6,000 cells per well in the complete RPMI medium in either the presence or absence of 10 μg/mL of an anti-CD123 antibody. A growth factor, either IL-3 (1 ng/mL) or GM-CSF (2 ng/mL), was added to the cells to initiate cell proliferation. […] The relative numbers of viable cells in each well were determined by the colorimetric WST-8 assay (Dojindo Molecular Technologies, Inc., Rockville, MD, US). WST-8 is reduced by dehydrogenases in viable cells to an orange formazan product that is soluble in tissue culture medium. The amount of formazan produced is directly proportional to the number of viable cells. […] Then the absorbance was measured on a plate-reader spectrophotometer in the dual wavelength mode 450 nm/650 nm, and the absorbance at the 650 nm (non-specific light scattering by cells) was subtracted from that at the 450 nm.
# TF-1 cells [3] = assay: Inhibition of IL-3-dependent proliferation of TF-1 cells (WST-8); type: cell-based, human; details: dose-response
# Method: as §1, with “US).” for “US). WST-8 is reduced by dehydrogenases in viable cells to an orange formazan product that is soluble in tissue culture medium. The amount of formazan produced is directly proportional to the number of viable cells.”
# TF-1 cells were plated at 6,000 cells per well in 100 μL culture medium. […] Relative cell number in each well was determined by WST-8 assay as described above. […]
molecule,measurement,setting,value
gemtuzumab ozogamicin [Mylotarg],fold difference in cytotoxicity between normal blood/progenitor cells and AML progenitor cells,[1],10 fold
Nc1ccn([C@@H]2O[C@H](CO)[C@@H](O)[C@@H]2O)c(=O)n1 [Cytarabine],% T/C (Day 16),"EOL-1 cells; 75 mg/kg, qd × 5, i.p.",84%
same,CR,"EOL-1 cells; 75 mg/kg, qd × 5, i.p.",0/8
same,PR,"EOL-1 cells; 75 mg/kg, qd × 5, i.p.",0/8
same,Result,"EOL-1 cells; 75 mg/kg, qd × 5, i.p.",Inactive
Nc1ncn([C@@H]2O[C@H](CO)[C@@H](O)[C@H]2O)c(=O)n1 [Azacitidine],% T/C (Day 16),"EOL-1 cells; 3.75 mg/kg, q3d × 5, i.p.",59%
same,CR,"EOL-1 cells; 3.75 mg/kg, q3d × 5, i.p.",0/8
same,PR,"EOL-1 cells; 3.75 mg/kg, q3d × 5, i.p.",0/8
same,Result,"EOL-1 cells; 3.75 mg/kg, q3d × 5, i.p.",Inactive
"muCD123-14: murine anti-CD123 monoclonal antibody, HCVR SEQ ID NO: 30, LCVR SEQ ID NO: 31 (antibody, V domains shown) VH: EVKLVESGGDLVKPGGSLKLSCAASGFTFSNYAMSWVRQNSEKRLEWVATINSGGSFTYYPDSVKGRFTISRDNAKDSLYLQMSSLNSEDTAMYYCARQSEAYYGYDKRTWFAYWGQGTLVTVSS VL: DILLTQSPAILSVSPGTRVSFSCRASQSVGTSIHWYQQRPNGFPRLLIKYASESISGIPSRFSGSGSGTDFTLNINSVESEDIADYYCQQSKSWPLTFGAGTKLELKR",effect on TF-1 cell proliferation in the presence of GM-CSF,TF-1 cells [2],no inhibitory effect
"muCD123-3: murine anti-CD123 monoclonal antibody, HCVR SEQ ID NO: 26, LCVR SEQ ID NO: 27 (antibody, V domains shown) VH: EFQLQQSGPEVVKPGASVKMSCKASGYTFTSYVMHWMKQKPGQGLEWIGYIKPYKDGTKYNEKFKGKATLISDKPSSTAYMELSSLTSEDSAVYYCAREGENGYYDAMDYWGQGTSVTVSS VL: DIQMTQSPSSLSASLGGKVTITCKASQDINKYIAWYQHKPGKGPRLLIHYTSTLQPGIPSRFSGSGSGRDYSFSISNLEPEDIATYYCLQYDNLLYTFGGGTKLELKR",effect on TF-1 cell proliferation in the presence of GM-CSF,TF-1 cells [2],no inhibitory effect
"muCD123-6: murine anti-CD123 monoclonal antibody, HCVR SEQ ID NO: 28, LCVR SEQ ID NO: 29 (antibody, V domains shown) VH: EFQLQQSGPELVKPGASVKMSCKASGYIFTSSIMHWMKQKPGQGLEWIGYIKPYNDGTKYNEKFKGKATLTSDKSSSTANMELNSLTSEDSAVYYCAREGGNDYYDTMDYWGQGTSVTVSS VL: DIKMTQSPSSMYASLGERVTITCKASQDINSYLSWFQQKPGKSPKTLIYRVNRLVDGVPSRFSGSGSGQDYSLTISSLEYEDMGIYYCLQYDAFPYTFGGGTKLEIKR",effect on TF-1 cell proliferation in the presence of GM-CSF,TF-1 cells [2],no inhibitory effect
"chCD123-6: chimeric antibody: mouse HCVR/LCVR SEQ ID NOs: 28 and 29 with human IgG1 and Kappa constant sequences (antibody, V domains shown, human IgG1 and kappa constant regions) VH: EFQLQQSGPELVKPGASVKMSCKASGYIFTSSIMHWMKQKPGQGLEWIGYIKPYNDGTKYNEKFKGKATLTSDKSSSTANMELNSLTSEDSAVYYCAREGGNDYYDTMDYWGQGTSVTVSS VL: DIKMTQSPSSMYASLGERVTITCKASQDINSYLSWFQQKPGKSPKTLIYRVNRLVDGVPSRFSGSGSGQDYSLTISSLEYEDMGIYYCLQYDAFPYTFGGGTKLEIKR",inhibition of IL-3-dependent proliferation of TF-1 cells (in words),TF-1 cells [3],completely inhibited at 1 nM
same,effect on TF-1 cell proliferation in the presence of GM-CSF,TF-1 cells [2],no inhibitory effect
